# Measured values from ChEMBL document CHEMBL1201862, “PubChem BioAssay data set” (2004).
# Activity calls are given as the source filed them.
# What was measured:
# [1] = molecular target: T1, Voltage-gated N-type calcium channel alpha-1B subunit/Amyloid beta A4 precursor protein-binding family A member 1 (Homo sapiens, UniProt Q00975+Q02410); format: protein assay
# [2] = molecular target: T1, Voltage-gated N-type calcium channel alpha-1B subunit/Amyloid beta A4 precursor protein-binding family A member 1; format: protein assay; remark: listed apart in the source
# Estrogen receptor beta = Estrogen receptor beta (Homo sapiens, UniProt Q92731); test: blockers of SRC-3 recruitment to ERβ – biochemical, ELISA, streptavidin-HRP readout, orthogonal assay, confirmation (AID 1060)
# Chain of Estrogen receptor beta (Q92731 whole entry): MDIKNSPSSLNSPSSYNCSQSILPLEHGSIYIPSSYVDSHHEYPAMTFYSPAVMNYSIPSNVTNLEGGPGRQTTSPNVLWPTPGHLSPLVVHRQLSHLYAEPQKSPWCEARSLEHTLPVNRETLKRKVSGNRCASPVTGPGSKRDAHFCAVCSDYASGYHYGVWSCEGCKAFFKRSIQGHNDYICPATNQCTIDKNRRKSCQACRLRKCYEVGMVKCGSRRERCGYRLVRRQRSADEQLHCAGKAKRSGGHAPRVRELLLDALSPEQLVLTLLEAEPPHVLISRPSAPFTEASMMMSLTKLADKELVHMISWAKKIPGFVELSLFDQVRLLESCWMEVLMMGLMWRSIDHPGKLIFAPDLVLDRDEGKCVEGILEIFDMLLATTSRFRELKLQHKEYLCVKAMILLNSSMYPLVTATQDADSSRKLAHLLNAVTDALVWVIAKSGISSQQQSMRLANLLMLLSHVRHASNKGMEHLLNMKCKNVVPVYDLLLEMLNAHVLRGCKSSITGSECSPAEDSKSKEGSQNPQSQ
# [3] = molecular target: T1, Voltage-gated N-type calcium channel alpha-1B subunit/Amyloid beta A4 precursor protein-binding family A member 1; test: disruptors of Mint-PDZ/N-type channel peptide interaction – biochemical, HTRF, SAR follow-up (AID 2489); format: functional
# NS3 = NS3 (Hepatitis C virus, UniProt A3EZJ3); test: PubChem AID 2173; design: species or system Hepacivirus hominis
# [4] = molecular target: T2, Tyrosine-protein phosphatase non-receptor type 7 (Homo sapiens, UniProt P35236); test: redox-active compounds inhibiting HePTP phosphatase – biochemical, fluorescence, mechanism study (AID 2068); format: functional
# T2 sequence (P35236 whole entry): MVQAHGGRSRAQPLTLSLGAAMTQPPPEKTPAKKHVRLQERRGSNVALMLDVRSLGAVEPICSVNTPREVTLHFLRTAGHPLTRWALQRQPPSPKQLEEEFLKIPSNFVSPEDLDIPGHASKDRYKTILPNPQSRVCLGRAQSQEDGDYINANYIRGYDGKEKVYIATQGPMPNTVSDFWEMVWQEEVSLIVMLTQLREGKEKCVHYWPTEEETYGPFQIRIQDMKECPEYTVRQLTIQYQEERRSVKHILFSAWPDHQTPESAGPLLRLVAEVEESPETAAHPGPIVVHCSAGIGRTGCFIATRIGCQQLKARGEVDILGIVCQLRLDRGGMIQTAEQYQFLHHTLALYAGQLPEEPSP
# [5] = molecular target: Cystic fibrosis transmembrane conductance regulator/Golgi-associated PDZ and coiled-coil motif-containing protein (Homo sapiens, UniProt P13569+Q9HD26); test: potency against CAL PDZ-peptide interaction – biochemical, fluorescence polarization, Cerulean-tagged CAL PDZ, cherry-picks, dose response (AID 504773)
# Integrin alpha-4 = Integrin alpha-4 (Homo sapiens, UniProt P13612); test: allosteric modulators of alpha4 integrin VLA-4 – cell-based, LIBS antibody binding, flow cytometry, SAR follow-up (AID 488791); format: functional
# [6] = molecular target: NACHT, LRR and PYD domains-containing protein 3 (Homo sapiens, UniProt Q96P20); test: NALP3 inhibitors in yeast, dose response, luminescent (AID 488799); format: functional
# Chain of NACHT, LRR and PYD domains-containing protein 3 (Q96P20 whole entry, the tested form may be a part): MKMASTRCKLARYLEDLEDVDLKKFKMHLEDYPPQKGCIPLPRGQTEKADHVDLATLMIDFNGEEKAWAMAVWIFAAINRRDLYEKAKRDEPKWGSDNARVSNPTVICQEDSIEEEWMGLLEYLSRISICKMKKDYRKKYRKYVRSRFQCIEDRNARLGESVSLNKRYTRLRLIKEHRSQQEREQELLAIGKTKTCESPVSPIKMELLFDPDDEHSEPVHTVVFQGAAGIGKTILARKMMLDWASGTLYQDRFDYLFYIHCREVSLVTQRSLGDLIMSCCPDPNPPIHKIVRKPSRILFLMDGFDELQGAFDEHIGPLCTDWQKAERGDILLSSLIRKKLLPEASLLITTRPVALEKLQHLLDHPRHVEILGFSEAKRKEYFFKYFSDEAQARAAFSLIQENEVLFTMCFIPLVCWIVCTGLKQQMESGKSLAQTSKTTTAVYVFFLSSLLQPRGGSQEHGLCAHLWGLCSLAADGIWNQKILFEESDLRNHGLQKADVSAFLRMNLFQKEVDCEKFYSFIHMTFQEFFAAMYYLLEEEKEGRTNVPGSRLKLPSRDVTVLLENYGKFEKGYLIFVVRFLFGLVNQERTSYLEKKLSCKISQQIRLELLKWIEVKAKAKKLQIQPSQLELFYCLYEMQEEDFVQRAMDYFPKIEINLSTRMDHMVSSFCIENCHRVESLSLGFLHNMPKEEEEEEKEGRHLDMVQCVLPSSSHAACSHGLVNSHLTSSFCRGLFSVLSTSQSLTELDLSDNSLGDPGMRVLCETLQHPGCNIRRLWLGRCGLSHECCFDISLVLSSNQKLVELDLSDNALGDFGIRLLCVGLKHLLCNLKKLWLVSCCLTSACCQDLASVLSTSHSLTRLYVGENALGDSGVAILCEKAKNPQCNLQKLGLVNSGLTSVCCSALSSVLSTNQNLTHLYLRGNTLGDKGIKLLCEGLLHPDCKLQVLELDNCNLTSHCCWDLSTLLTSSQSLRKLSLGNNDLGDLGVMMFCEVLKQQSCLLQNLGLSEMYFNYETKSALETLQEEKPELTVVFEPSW
# H4 = test: Luminescence Cell-Based Dose Response HTS to Identify Activators of 5'UTR Stem-Loop Driven Prion Protein mRNA Translation in H4 Neuroglioblastoma Cells. [Related pubchem assays: 1829 (Project Summary), 1814 (Primary HTS)]; format: functional; conditions: Homo sapiens
# [7] = Luminescence Cell-Based Dose Response HTS to Identify Activators of Luciferase Translation or Activity in H4-C Neuroglioblastoma Cells. [Related pubchem assays: 1829 (Project Summary), 1814 (Primary HTS)]; format: functional
# [8] = Luminescence Cell-Based Dose Response HTS to Identify Activators of Luciferase Translation or Activity in H4 […] Cells. [Related pubchem assays: 1829 (Project Summary), 1814 (Primary HTS)]; format: functional
# [9] = Luminescence Cell-Based Dose Retest to Confirm Activators of 5'UTR Stem-Loop Driven Alpha-Synuclein mRNA Translation in H4 Neuroglioblastoma Cells. [Related pubchem assays (depositor defined):AID1813, AID1829]; format: functional
# [10] = Luminescence Cell-Based Dose Confirmation HTS to Identify Activators of 5'UTR Stem-Loop Driven Alpha-Synuclein mRNA Translation in H4 Neuroglioblastoma Cells. [Related pubchem assays: 1829 (Project Summary), 1814 (Primary HTS)]; format: functional
# [11] = Luminescence Cell-Based Dose Response HTS to Identify Activators of 5'UTR Stem-Loop Driven Prion Protein mRNA Translation in H4-C Neuroglioblastoma Cells. [Related pubchem assays: 1829 (Project Summary), 1814 (Primary HTS)]; format: functional
# [12] = molecular target: T3, Mannose-6-phosphate isomerase (Homo sapiens, UniProt P34949); test: Confirmation of compounds inhibiting phosphomannose isomerase (PMI) via a fluorescence intensity assay using a high concentration of mannose 6-phosphate. [Related pubchem assays (depositor defined):AID1209, AID1220, AID1545, AID1553, AID1620]
# T3 sequence (P34949 whole entry): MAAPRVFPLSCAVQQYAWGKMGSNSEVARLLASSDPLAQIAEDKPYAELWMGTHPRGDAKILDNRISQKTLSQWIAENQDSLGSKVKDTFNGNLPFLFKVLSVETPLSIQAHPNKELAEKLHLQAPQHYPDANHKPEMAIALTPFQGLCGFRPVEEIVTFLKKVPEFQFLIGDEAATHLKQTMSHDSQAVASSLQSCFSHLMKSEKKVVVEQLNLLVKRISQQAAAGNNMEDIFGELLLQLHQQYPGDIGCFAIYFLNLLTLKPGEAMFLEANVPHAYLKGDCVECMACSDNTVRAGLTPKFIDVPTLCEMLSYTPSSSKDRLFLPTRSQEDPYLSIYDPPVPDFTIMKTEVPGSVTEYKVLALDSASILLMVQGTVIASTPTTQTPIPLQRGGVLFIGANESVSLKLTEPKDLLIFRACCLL
# Phosphomannomutase 2 = Phosphomannomutase 2 (Homo sapiens, UniProt O15305); test: Counter screen SAR assay for PMM2 inhibitors via a fluorescence intensity assay. [Related pubchem assays (depositor defined):AID1545, AID1574]
# Chain of Phosphomannomutase 2 (O15305 whole entry): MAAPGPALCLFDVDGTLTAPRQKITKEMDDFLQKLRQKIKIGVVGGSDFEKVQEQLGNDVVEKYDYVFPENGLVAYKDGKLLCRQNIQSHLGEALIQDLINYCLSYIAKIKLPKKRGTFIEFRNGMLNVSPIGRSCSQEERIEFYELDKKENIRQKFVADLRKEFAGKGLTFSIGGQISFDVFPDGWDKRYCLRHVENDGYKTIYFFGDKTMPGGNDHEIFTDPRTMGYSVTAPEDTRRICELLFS
# [13] = molecular target: T3, Mannose-6-phosphate isomerase; test: phosphomannose isomerase inhibition – biochemical, fluorescence intensity, confirmation (AID 1535)
# Troponin, cardiac muscle = Troponin, cardiac muscle (Homo sapiens, UniProt P19429+P45379+P63316); test: Fluorescence-based biochemical high throughput dose response assay for activators of the calcium sensitivity of cardiac Regulated Thin Filaments (RTF). [Related pubchem assays (depositor defined):AID493008, AID493018, AID504382, AID504383]; format: protein-complex assay
# [14] = molecular target: G-protein coupled receptor 35 (Homo sapiens, UniProt Q9HC97); test: inhibition of zaprinast-stimulated GPR35 beta-arrestin translocation – imaging, U2OS, beta-arrestin-GFP, zaprinast agonist, primary screen (AID 2058); format: functional;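 also: antagonist potency meaning inhibition of agonist-induced arrestin redistribution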
# T1 sequence (Q00975 whole entry): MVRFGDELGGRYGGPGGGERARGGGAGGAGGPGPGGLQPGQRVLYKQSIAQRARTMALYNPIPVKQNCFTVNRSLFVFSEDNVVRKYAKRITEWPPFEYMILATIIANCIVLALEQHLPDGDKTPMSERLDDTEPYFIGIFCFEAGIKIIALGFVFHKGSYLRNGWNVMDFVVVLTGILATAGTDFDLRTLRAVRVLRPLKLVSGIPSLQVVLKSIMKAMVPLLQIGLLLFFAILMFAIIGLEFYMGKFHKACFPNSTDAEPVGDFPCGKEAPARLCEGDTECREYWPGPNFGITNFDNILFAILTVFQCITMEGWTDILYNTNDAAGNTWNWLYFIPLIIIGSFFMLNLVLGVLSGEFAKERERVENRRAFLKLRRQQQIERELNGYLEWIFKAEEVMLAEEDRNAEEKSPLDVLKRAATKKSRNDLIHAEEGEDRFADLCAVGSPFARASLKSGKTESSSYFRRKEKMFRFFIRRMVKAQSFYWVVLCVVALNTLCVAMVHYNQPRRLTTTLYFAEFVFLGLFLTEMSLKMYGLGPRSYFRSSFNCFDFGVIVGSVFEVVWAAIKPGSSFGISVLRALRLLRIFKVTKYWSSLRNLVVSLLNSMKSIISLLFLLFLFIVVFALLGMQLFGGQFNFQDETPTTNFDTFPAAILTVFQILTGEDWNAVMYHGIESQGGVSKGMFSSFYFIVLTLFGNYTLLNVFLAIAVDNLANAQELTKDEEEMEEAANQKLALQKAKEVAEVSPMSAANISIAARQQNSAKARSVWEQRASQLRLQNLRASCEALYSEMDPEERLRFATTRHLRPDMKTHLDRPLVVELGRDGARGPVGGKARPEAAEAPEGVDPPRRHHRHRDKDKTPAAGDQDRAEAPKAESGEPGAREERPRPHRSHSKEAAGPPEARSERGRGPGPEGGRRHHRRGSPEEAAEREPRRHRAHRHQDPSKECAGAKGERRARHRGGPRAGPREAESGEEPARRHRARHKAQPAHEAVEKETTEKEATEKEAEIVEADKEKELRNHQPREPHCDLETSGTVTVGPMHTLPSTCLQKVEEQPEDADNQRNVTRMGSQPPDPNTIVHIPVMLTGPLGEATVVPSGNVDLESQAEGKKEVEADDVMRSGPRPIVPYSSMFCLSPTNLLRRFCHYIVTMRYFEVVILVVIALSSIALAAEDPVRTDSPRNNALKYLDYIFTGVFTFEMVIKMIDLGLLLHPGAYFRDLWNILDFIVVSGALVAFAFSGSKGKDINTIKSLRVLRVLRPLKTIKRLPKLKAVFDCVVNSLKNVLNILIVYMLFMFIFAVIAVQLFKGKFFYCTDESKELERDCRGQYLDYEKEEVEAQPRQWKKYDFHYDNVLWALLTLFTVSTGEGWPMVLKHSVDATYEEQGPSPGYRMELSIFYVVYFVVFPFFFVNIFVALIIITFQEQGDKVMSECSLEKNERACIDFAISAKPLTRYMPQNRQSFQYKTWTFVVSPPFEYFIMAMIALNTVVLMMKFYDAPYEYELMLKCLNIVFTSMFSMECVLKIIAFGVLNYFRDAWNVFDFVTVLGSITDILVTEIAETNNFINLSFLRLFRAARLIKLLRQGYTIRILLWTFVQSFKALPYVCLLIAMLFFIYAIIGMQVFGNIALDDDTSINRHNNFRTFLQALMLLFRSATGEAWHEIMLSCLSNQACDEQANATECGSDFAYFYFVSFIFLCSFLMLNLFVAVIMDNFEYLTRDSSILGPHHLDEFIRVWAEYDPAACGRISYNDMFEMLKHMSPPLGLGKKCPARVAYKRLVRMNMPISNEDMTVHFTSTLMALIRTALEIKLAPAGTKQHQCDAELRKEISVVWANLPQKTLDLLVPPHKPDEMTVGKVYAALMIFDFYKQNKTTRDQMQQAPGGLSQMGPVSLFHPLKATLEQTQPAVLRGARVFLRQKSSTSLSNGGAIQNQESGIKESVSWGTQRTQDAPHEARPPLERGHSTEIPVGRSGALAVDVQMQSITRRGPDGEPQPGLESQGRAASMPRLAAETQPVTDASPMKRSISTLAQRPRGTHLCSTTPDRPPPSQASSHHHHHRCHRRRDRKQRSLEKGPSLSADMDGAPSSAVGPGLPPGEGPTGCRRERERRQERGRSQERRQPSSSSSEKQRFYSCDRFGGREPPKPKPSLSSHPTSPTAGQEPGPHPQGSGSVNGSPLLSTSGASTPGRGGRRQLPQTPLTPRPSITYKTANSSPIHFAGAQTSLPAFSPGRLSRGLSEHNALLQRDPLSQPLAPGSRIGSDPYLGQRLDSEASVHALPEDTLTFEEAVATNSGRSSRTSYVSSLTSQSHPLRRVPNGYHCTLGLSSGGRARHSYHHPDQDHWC
# T1 sequence (Q02410 whole entry): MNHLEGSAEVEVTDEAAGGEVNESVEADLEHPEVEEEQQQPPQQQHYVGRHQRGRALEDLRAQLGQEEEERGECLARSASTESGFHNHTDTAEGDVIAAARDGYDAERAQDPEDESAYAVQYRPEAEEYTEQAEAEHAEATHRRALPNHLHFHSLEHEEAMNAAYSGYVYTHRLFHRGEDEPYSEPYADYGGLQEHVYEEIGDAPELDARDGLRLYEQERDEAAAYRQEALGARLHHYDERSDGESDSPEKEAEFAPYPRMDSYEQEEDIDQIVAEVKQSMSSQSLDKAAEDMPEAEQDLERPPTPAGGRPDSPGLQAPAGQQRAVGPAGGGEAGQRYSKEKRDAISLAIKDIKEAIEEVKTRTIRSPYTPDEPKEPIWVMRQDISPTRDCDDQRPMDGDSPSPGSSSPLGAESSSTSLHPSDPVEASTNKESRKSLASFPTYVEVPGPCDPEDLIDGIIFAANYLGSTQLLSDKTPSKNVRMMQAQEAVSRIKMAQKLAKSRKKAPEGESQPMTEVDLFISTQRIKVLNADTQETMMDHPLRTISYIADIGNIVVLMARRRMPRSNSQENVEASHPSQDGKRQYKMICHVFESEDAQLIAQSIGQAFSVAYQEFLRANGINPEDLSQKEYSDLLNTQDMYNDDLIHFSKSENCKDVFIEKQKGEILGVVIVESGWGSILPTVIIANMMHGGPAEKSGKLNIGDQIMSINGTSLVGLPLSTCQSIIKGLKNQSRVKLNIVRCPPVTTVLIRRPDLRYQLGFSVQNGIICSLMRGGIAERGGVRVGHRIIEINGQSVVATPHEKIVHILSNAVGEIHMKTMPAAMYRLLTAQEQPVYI
compound,measurement,setting,value
O=C(NC1CCCC1)c1ccc2nc(-c3ccco3)c(-c3ccco3)nc2c1,IC50,[1],26 µM (active)
same,IC50,[2],2.28 µM (active)
same,IC50,Estrogen receptor beta,0.478 µM (not active)
same,IC50,[3],> 56.8 µM (inactive)
same,IC50,NS3,5.49 µM (active)
same,IC50,[4],2.94 µM (active)
O=C(c1ccccc1)C(c1ccccc1)c1ccccc1,AC50,[5],> 56 µM (inactive)
COC(=O)C1OC2(OC1C(=O)OC)c1ccccc1-c1ccccc12 (stereo not given),EC50,Integrin alpha-4,7.14 µM (active)
COc1cc(CNCCc2ccccc2)ccc1OCc1ccc(Cl)nc1,IC50,[6],30.1 µM (active)
O=C1Nc2ccccc2S/C1=C\C(=O)N1CCCC1,EC50,H4,> 120 µM (not active)
same,EC50,[7],13.2 µM (active)
same,EC50,[8],8.16 µM (active)
same,EC50,[9],> 195 µM (inactive)
same,EC50,[10],0.264 µM (active)
same,EC50,[11],9.5 µM (active)
O=c1c2ccc(O)cc2sn1C1CCCC1,IC50,[12],> 100 µM (inactive)
same,IC50,Phosphomannomutase 2,> 100 µM (inactive)
same,IC50,[13],> 100 µM (inactive)
O=[N+]([O-])c1ccc(/C=C/C2=NN(c3ccccc3)C(c3ccco3)C2)cc1 (stereo not given),EC50,"Troponin, cardiac muscle",0.397 µM (active)
C=CCCCCCCCCc1nnc(SCC(=O)O)[nH]1,IC50,[14],0.553 µM (active)
